# Laboratory results taken from patent US20230165965A1, “NEW COUMARIN-POLYMER CONJUGATES AND USES THEREOF” (Onyel Biotech S.r.l., priority 2020, published 2023).
# Like-named read-outs stand apart in the source and are kept apart here.
# Columns and labels:
# Fibroblasts (FBs) = settings: ΔZ up to 150 μm, interspace down to 10 μm
# Experimental: For 3D cell laden culture, 10^4 cells were seeded into Matrigel, or Matrigel or CMMC-Gel exposed to UV light for 3 minutes at an irradiation distance of 3 millimeters, located in a 24 multiwell culture dish, cultured for 2 days at 37° C. and 5% CO2 in cell incubator before performing cell viability assay as described above. […] 2P-cell laden constructs were analyzed by imaging or AFM as described above.
# HUVEC cells = settings: seeded on hydrogels
# Experimental: HUVEC were transduced with a lentiviral vector encoding for eGFP (3) and cultured in Endothelial Growth Media (EGM, Lonza). […] After culture, cells were fixed in 4% (w/v) paraformaldehyde (PFA, Sigma-Aldrich) in PBS for 7 min at room temperature and maintained at 4° C. in PBS until use. […] After culture, cells were fixed in 4% (w/v) paraformaldehyde (PFA, Sigma-Aldrich) in PBS for 7 min at room temperature and maintained at 4° C. in PBS until use.
# mCherry+FBs = settings: for organization of donor mCherry+FBs: under epimysium, 21 days
# Experimental: (§1) Mice were anaesthetized using i.p. injection of Zoletil® 50/50 (40 mg/kg) and Rompun® 2% Xilazina (5 mg/kg) in physiologic solution. Induction of deep surgical anaesthesia was confirmed by absence of reaction to hind foot pinch. The surgical procedure underwent in aseptic conditions (skin preparation, sterilized instruments, gloves and drapes). […] For blood flow analysis, Rhodamine B isothiocyanate-Dextran (Sigma, R9379) was injected in tail vein at 50 mg/mL in physiologic solution. When required, skin wound was closed with Vicryl 6-0 suture and no movement or space restriction were applied to animals after treatments. At the required time point, animals were deeply anesthetized, subjected to stereomicroscope and/or 2P intravital imaging, then sacrificed for tissues collection.
# [1] = tested on: human small intestinal organoids (hSIOs); format: cell-based; settings: open square-box hydrogel, up to 8 days of culture
# Text: (§2) ImageJ software were used for adjustments of levels and contrast, maximum and standard deviation intensity projections, 3D reconstructions and thresholding to create binary mask used for directionality and ferret angle measurements. To quantify the directionality of i3D bioprinted cells, at least 9 fluorescence images of independent biological triplicates for each sample were converted in binary masks, then analyzed with directionality plugin of ImageJ software (that indicates the amount of structures in a given direction). To quantify the shape of enclosed hSIOs, at least 9 fluorescence images of independent biological triplicates for each sample were converted in binary masks, then analyzed with measure plugin of ImageJ software to quantify the Feret's angle (the angle between the longest distance of the axis of any two points along the selection boundary (Feret's diameter) and a line parallel to the x-axis of the image).
# [2] = tested on: Murine muscle-derived stem cells (MuSC)
# Experimental: Cells were expanded for 1 passage at 37° C. in cell incubator, using proliferating medium composed by DMEM supplemented with 20% horse serum, 10% fetal bovine serum (Gibco), 1% chicken embryo extract (Sera Laboratories International), bFGF ([…], Invitrogen #PHG0264) and 1% Pen/Strep (Thermofisher). […] Samples were cultured in proliferating media and analyzed 2 days after 3D bioprinting (cell directionality was quantified as reported above). […] After 5 days of culture in proliferating medium, differentiation medium (DMEM supplemented with 2% horse serum and 1% Pen/Strep) was used for the following 5 days of cell culture. After 10 days, samples were fixed in 4% (w/v) paraformaldehyde (PFA, Sigma-Aldrich) in PBS for 7 min at room temperature and maintained at 4° C. in PBS until use.
# as §2
# skeletal muscle = settings: GFP+MuSC/mCherry+FB-laden, i3D bioprinted
# Experimental: as §1
# ImageJ software were used for adjustments of levels and contrast, maximum and standard deviation intensity projections, 3D reconstructions and thresholding to create binary mask used for directionality and ferret angle measurements. To quantify the directionality of i3D bioprinted cells, at least 9 fluorescence images of independent biological triplicates for each sample were converted in binary masks, then analyzed with directionality plugin of ImageJ software (that indicates the amount of structures in a given direction). […]
# [3] = Single-photon absorption spectra analysis of coumarin derivatives; format: physicochemical
# Experimental: Table 1, below, reports the absorbance spectra analysis of selected coumarin derivatives dissolved in PBS at pH 7.4, the maximum single photon absorption wavelengths in specific solvents are indicated.
# Selected coumarin derivatives were dissolved in DMSO at a concentration of 5 mg/ml and diluted 1:500 in PBS, pH 7.4. The absorption spectra were recorded on an Evolution 201 UV-Vis spectrophotometer (Thermo Fisher Scientific, Waltham, Mass., USA) in the wavelength range of 250-450 nm.
# [4] = Atomic force measurement (AFM) of hydrogel Young's modulus; format: physicochemical; settings: 1-photon UV mediated cycloaddition
# Experimental: With the aim to provide glass surface HCCA-groups for covalent bonding HCC-branched polymers solutions were drop-cast onto glass coverslip previously functionalized with HCCA- as described in Section 10. HCC-4arm PEG and HCC-8arm PEG were dissolved in PBS (300 mg/mL) at room temperature under agitation. HCC-Gel was dissolved in PBS (100 mg/mL) under agitation at 60° C. for 10 min. When coverslips were used, a second coverslip was placed on top of the drop of HCC-polymeric solutions to limit water evaporation during the irradiation process. […] Laser power is measured before objective back aperture, corresponding to about 1% of the power on the sample plane. […]
# For crosslinking reaction analysis, 5 μL CMMC-4 arm PEG (300 mg/mL) or CMMC-Gel (100 mg/mL) solution was located in a humid chamber at 3 cm from a 365 nm UV LED Gen 2 Emitter LZ4-04UV00 (Led Engin) and irradiated for different minutes as reported. When CMMC-Gel solution was analysed at different concentrations (100 mg/mL, 120 mg/mL, 140 mg/mL, 160 mg/mL, 180 mg/mL and 200 mg/mL), 5 μL of solution was located in a humid chamber at 3 cm from a 365 nm UV LED Gen 2 Emitter LZ4-04UV00 (Led Engin) and irradiated for 3 minutes. […]
# The Young's modulus was calculated applying a fit of the Hertz model to the force curve, assuming a Poisson ratio of 0.5. […]
compound,measurement,setting,value
7-hydroxycoumarin-3-carboxamide-gelatin [HCC-Gel],adhesion of GFP FBs to parallelepiped-shaped hydrogels,Fibroblasts (FBs),efficiently adhere
same,adhesion and culture of HUVEC cells,HUVEC cells,supported adhesion and culture
same,localization of donor mCherry+FBs,"mCherry+FBs; intra-dermal injection and i3D bioprinting across epidermis, 14 days",Elongated localization
same,organization of donor mCherry+FBs,mCherry+FBs; i3D bioprinted parallelepiped-shaped constructs,elongated clusters
same,organization of donor mCherry+FBs,mCherry+FBs; injected only (no i3D bioprinting),rounded clusters
same,columnar epithelium of enclosed hSIOs,[1],well-developed columnar epithelium
same,cell directionality of MuSC,[2]; cuboid-shaped structures,randomly oriented
same,cell directionality of MuSC,[2]; elongated-shaped structures,oriented along major axis of the 3D structures
same,myotube formation,"[2]; parallelepiped-shaped structures, 10 days of culture",support the formation of aligned multinucleated myotubes
same,de novo skeletal muscle tissue formation,skeletal muscle; 7 days,supports de novo skeletal muscle tissue formation
same,organization of donor GFP cells,skeletal muscle; one week,confined bundle of elongated GFP cells
O=C(ON1C(=O)CCC1=O)c1cc2ccc(O)cc2oc1=O [7-Hydroxycoumarin-3-carboxylic acid N-succinimidyl ester],Abs λ,[3]; solvent not given,413 nm
7-(carboxymethoxy)-4-methylcoumarin-gelatin [CMMC-Gel],elastic modulus with increasing irradiation time,[4],increases to asymptotic values
O=c1cc(C(F)(F)F)c2ccc(O)cc2o1 [7-Hydroxy-4-(trifluoromethyl)coumarin],Abs λ,[3]; Solvent: Ethanol,383 nm
CCOC(=O)c1cc2ccc(O)cc2oc1=O [Ethyl 7-Hydroxycoumarin-3-carboxylate],Abs λ,[3]; Solvent: Ethanol,403 nm
Cc1cc(=O)oc2cc(O)ccc12 [7-Hydroxy-4-methylcoumarin],Abs λ,[3]; Solvent: 95% Ethanol,322 nm
Cc1c(CC(=O)O)c(=O)oc2cc(N)ccc12 [7-Amino-4-methyl-3-coumarinylacetic acid],Abs λ,[3]; Solvent: Methanol,340 nm
Cc1cc(=O)oc2cc(OCC(=O)O)ccc12 [7-Carboxymethoxy-4-methylcoumarin],Abs λ,[3]; Solvent: Ethanol,321 nm
O=c1ccc2ccc(O)cc2o1 [7-Hydroxycoumarin],Abs λ,[3]; Solvent: 95% Ethanol,325 nm
